{"source": "patent US20220087983A1", "about": "“ACTIVATING PYRUVATE KINASE R” (FORMA Therapeutics, Inc., priority 2020, published 2022)", "key": {"aromatase": {"biological_target": "T1, aromatase (Homo sapiens, UniProt P11511)", "T1 sequence (P11511 1-503)": "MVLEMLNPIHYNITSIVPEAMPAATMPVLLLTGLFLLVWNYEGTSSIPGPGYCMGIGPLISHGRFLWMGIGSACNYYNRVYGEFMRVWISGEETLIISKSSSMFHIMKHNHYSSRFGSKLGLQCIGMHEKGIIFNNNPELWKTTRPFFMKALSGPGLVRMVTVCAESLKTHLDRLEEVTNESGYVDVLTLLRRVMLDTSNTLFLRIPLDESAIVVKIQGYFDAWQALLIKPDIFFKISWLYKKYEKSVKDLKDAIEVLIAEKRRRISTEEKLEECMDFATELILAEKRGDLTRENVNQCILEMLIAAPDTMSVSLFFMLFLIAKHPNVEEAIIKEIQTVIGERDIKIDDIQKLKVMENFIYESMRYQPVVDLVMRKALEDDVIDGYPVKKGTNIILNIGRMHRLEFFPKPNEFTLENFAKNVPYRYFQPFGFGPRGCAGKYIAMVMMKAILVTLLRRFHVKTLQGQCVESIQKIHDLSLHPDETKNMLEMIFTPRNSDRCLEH", "test": "Aromatase inhibition", "details": "non-clinical testing"}, "wt-PKR": {"biological_target": "wt-PKR (Homo sapiens, UniProt P30613)", "sequence (P30613 whole entry)": "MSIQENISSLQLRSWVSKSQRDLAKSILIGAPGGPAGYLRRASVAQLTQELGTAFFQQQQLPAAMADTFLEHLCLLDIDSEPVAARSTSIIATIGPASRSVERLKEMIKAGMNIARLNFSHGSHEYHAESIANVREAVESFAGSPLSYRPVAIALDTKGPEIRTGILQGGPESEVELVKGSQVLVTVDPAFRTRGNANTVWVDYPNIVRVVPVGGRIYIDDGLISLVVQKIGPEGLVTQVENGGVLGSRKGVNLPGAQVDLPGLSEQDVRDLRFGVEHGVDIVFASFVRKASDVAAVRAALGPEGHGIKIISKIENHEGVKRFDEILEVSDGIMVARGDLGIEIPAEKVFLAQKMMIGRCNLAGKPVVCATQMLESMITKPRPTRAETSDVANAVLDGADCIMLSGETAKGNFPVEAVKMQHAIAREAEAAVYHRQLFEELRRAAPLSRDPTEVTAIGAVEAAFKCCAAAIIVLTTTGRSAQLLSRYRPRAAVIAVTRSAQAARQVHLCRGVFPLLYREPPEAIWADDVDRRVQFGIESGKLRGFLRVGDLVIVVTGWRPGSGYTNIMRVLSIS", "test": "Enzyme assay of PKR kinetics and activation (Example 3)", "type": "biochemical", "details": "PEP at or below Km", "protocol": "The ability of Compound 1 to activate PKR in enzyme-based assays was measured.\nTests were conducted in the presence and absence of fructose-1,6-bisphosphate (FBP), a known allosteric activator of PKR."}, "CYP2C19": {"biological_target": "T2, CYP2C19 (Homo sapiens, UniProt P33261)", "T2 construct": "from tissue; host or cells: human liver microsomes", "T2 sequence (P33261 whole entry)": "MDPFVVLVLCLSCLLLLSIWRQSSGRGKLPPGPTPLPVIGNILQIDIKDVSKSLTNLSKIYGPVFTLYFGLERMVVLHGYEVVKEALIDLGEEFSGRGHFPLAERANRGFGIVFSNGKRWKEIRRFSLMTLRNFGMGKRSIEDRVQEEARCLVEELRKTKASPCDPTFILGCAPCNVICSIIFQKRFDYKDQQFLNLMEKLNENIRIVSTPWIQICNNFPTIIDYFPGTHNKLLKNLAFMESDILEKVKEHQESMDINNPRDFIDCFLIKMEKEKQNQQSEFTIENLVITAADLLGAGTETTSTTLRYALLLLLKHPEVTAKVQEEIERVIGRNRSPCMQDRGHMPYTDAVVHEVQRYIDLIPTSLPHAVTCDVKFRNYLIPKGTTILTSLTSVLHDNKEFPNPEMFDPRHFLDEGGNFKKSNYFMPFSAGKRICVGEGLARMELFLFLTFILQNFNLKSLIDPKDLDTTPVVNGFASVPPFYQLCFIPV", "test": "Single substrate DDI assay, reversible CYP inhibition in human liver microsomes", "type": "in vitro ADME"}, "ATP blood levels": {"test_system": "ATP blood levels", "test": "Phase 1: blood ATP levels in healthy volunteers (LC-MS/MS)", "type": "in vivo, human", "details": "for Mean maximum percent change from baseline in ATP: all doses and timepoints", "protocol": "(§1) In this study, SAD/MAD cohorts are randomized (3 to 1) to receive Compound 1 or placebo (P). Compound 1 was evaluated first in 4 healthy SAD cohorts and 4 healthy MAD (14-day dosing period) cohorts. Based on the safety, and PK/PD profile from HS, Compound 1 is then evaluated in 1 SCD SAD cohort and 2 SCD MAD cohorts. Specifically, based on the safety and pharmacokinetic/pharmacodynamics (PK/PD) profile in healthy volunteer studies, Compound 1 is evaluated in patients (pts) with SCD, first in a single dose (SD or SAD) cohort and then in multiple-dose (MD or MAD) cohorts (14-day and 12-week). Safety assessments include AEs, vital signs, ECGs and laboratory parameters. PK/PD blood sampling was performed on Day 1 (SAD/MAD) and Day 14 (MAD) and up to 72 h after the last dose and at the end-of-study visit. PD parameters included 2,3-DPG, ATP, and p50 in all cohorts with additional PD studies (including oxygen scan) performed only in the SCD cohorts. PD parameters included 2,3-DPG, ATP, p50, RBC deformability with controlled deoxygenation and reoxygenation (Lorrca® oxygen scan) and varying osmolality (Lorrca® osmoscan)). To maintain study blind, pt identifiers were removed when needed.\nIn the MAD cohorts, the subjects' blood ATP levels were measured […] by a qualified LC-MS/MS method for the quantitation of ATP in blood. […] Table 20A reports the median percentage change in blood ATP levels, relative to baseline, measured over time after the first dose on days 1 and 14 in healthy volunteers who received daily doses of Compound 1 (100 mg BID, 200 mg BID, 300 mg BID, or 400 mg QD) or placebo for 14 days. Table 20B reports the mean percentage change in ATP blood levels, relative to baseline, measured over time after the first dose on days 1 and 14 in healthy volunteers who received daily doses of Compound 1 (100 mg BID, 200 mg BID, 300 mg BID, or 400 mg QD) for 14 days.\nThe following procedures are employed for the analysis of ATP and 2,3-DPG in human whole blood K2EDTA using a protein precipitation extraction procedure and analysis by LC-MS/MS. […]"}, "2,3-DPG blood levels": {"test_system": "2,3-DPG blood levels", "test": "Phase 1: blood 2,3-DPG levels in SCD patients", "type": "in vivo, human", "protocol": "as §1, with “PD parameters included 2,3-DPG, ATP, p50, RBC deformability with controlled deoxygenation and reoxygenation (Lorrca® oxygen scan) and varying osmolality (Lorrca® osmoscan)). To maintain study blind, pt identifiers were removed when needed.” left out\nThe following table reports the mean percentage change in 2,3-DPG blood levels, relative to baseline, measured over time in SCD patients after a single dose of Compound 1 (700 mg):\nThe following table reports the mean percentage change in 2,3-DPG blood levels, relative to baseline, measured over time after the first dose on days 1 and 14 in SCD patients who received daily doses of Compound 1 (300 mg QD) for 14 days: […]"}}, "data": [{"smiles": "O=C([C@H](CO)c1ccccc1)N1CC2=C(C1)CN(S(=O)(=O)c1cnc3c(c1)OCCO3)C2", "note": "(single isomer, unassigned) [Compound 1]", "values": [{"measurement": "aromatase inhibition", "setting": "aromatase", "result": "absence of aromatase inhibition"}, {"measurement": "AC50", "setting": "wt-PKR", "result": "< 0.1", "unit": "µM"}, {"measurement": "IC50", "setting": "CYP2C19", "result": "> 30", "unit": "µM"}, {"measurement": "Mean maximum percent change from baseline in ATP", "setting": "ATP blood levels; HV MAD, N = 36", "result": 68.5, "unit": "%"}, {"measurement": "Mean maximum percent change from baseline in ATP", "setting": "ATP blood levels; HV SAD, N = 24", "result": 24.4, "unit": "%"}, {"measurement": "lag of maximum ATP increase behind maximum plasma concentration", "setting": "ATP blood levels; HV, single 200-1000 mg dose", "result": "at least 24 hours"}, {"measurement": "Mean percentage change in 2,3-DPG blood levels", "setting": "2,3-DPG blood levels; SCD patients, single dose 700 mg, 0 h after dose", "result": "−0", "unit": "%"}, {"measurement": "lag of maximum 2,3-DPG decrease behind maximum plasma concentration", "setting": "2,3-DPG blood levels; SCD, single 700 mg dose (FIG. 54B)", "result": "about 24 hours"}]}]}
